In patent US11952384B2, “Anti-tumor compound and preparation method and use thereof” (DUALITY BIOLOGICS (SUZHOU) CO., LTD., priority 2020, dated 2024):
Like-named read-outs stand apart in the source and are kept apart here.

Experiments:
JIMT-1 cells = experiment: Inhibition of in vitro proliferation of tumor cells by compounds (CTG, 6 days); assay type: cell-based
Description: (§1) To test the inhibitory activity of the pharmaceutical compounds on the in vitro proliferation of NCI-N87, JIMT-1 and MBA-MB-231 tumor cells. The cells were treated with the compounds at different concentrations in vitro, and after 6 days of culture, the proliferation of cells was detected using the CTG (CellTiter-Glo® Luminescent Cell Viability Assay, Promega, Cat. No. G7558) reagent, and the in vitro activity of the compounds was evaluated according to the IC50 value.
(§2) In the following, the test for the inhibition of the in vitro proliferation of NCI-N87 cells was taken as an example to illustrate the method of the present application for testing the inhibitory activity of the compounds of the present application on the in vitro proliferation of tumor cells. The method was also applicable to, but not limited to, the test for the inhibitory activity on the in vitro proliferation of other tumor cells. • 1. Culturing of cells: NCI-N87 cells were cultured in RPMI-1640 medium containing 10% FBS. • 2. Preparation of cells: NCI-N87 cells in logarithmic phase were taken, washed with PBS once, and digested with 2-3 mL of trypsin for 2-3 min. After the cells were digested completely, 10-15 mL of cell culture was added to elute the digested cells. The eluate was centrifuged at 1000 rpm for 5 min, and the supernatant was discarded. The resulting cells were resuspended in 10-20 mL of cell culture to obtain a single cell suspension. • 3. Cell plating: the NCI-N87 single cell suspension was mixed well and adjusted to a viable cell density of 6×10^4 cells/mL with cell culture. The cell suspension with the adjusted density was mixed well and added to a 96-well cell culture plate at 50 μL/well. The culture plate was incubated in an incubator for 18 h (37° C., 5% CO2). • 4. Preparation of compounds: the compounds were dissolved in DMSO to obtain stock solutions at an initial concentration of 10 mM. There were 8 concentrations in total for the small molecule compounds: 300 nM, 100 nM, 30 nM, 10 nM, 3 nM, 1 nM, 0.3 nM, and 0.1 nM. • 5. Sample adding: the prepared samples to be detected at different concentrations were added to the culture plate, and two duplicate wells were set for each sample. The culture plate was incubated in an incubator for 6 days (37° C., 5% CO2). • 6. Color developing: the 96-well cell culture plate was taken out, added with the CTG reagent at 50 μL/well, and incubated at room temperature for 10 min. • 7. Plate reading: the 96-well cell culture plate was taken out, placed in a microplate reader, and measured for the chemiluminescence using the microplate reader. Data Analysis
(§3) Data were processed and analyzed using Microsoft Excel and Graphpad Prism 5.
(§4) To test the inhibitory activity of the pharmaceutical compounds on the in vitro proliferation of NCI-N87, JIMT-1 and MBA-MB-231 tumor cells. The cells were treated with compounds at different concentrations in vitro, and after 6 days of culture, the proliferation of cells was detected using CTG (CellTiter-Glo® Luminescent Cell Viability Assay, Promega, Cat. No. G7558) reagents, and the in vitro activity of the compounds was evaluated according to the IC50 value. • 1. Culturing of cells: NCI-N87/JIMT-1/MBA-MB-231 cells were cultured in RPMI-1640 medium containing 10% FBS. • 2. Preparation of cells: NCI-N87/JIMT-1/MBA-MB-231 cells in logarithmic phase were taken, washed with PBS once, and digested with 2-3 mL of trypsin for 2-3 min. After the cells were digested completely, 10-15 mL of cell culture was added to elute the digested cells. The eluate was centrifuged at 1000 rpm for 5 min, and the supernatant was discarded. The resulting cells were resuspended in 10-20 mL of cell culture to obtain a single cell suspension. • 3. Cell plating: the NCI-N87/JIMT-1/MBA-MB-231 single cell suspension was mixed well and adjusted to a viable cell density of 6×10^4 cells/mL with cell culture. […]

NCI-N87 cells = experiment: as above; assay type: cell-based; settings: Homo sapiens, NCI-N87, 144 h, read-out: NCI-N87 IC50 (nM)
Description: as §1, §2, §3, §4

BCRP [1] = molecular target: T1, BCRP (Homo sapiens, UniProt Q9UNQ0); experiment: Study on transporter substrates in Caco-2 cell model; settings: human, Caco-2
T1 sequence (Q9UNQ0 1-655): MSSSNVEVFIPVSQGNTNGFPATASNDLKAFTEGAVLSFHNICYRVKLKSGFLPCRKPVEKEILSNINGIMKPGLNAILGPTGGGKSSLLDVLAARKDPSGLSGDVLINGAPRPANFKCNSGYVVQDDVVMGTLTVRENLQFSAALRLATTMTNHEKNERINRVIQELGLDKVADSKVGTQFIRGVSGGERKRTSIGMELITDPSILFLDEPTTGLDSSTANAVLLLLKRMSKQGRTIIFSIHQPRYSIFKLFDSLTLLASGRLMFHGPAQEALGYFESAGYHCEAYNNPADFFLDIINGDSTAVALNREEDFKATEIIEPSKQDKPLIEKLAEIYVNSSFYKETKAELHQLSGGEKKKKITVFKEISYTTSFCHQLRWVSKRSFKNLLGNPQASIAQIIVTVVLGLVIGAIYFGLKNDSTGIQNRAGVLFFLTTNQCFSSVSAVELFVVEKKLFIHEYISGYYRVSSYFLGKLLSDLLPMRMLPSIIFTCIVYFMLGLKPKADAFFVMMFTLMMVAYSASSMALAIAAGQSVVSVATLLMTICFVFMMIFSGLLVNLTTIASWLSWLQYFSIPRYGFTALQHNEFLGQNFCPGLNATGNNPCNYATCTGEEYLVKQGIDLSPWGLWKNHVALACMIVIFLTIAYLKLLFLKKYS
Description: (§5) To investigate whether the compounds of the present invention is a substrate for efflux transporters P-gp and BCRP in a Caco-2 cell model, thereby providing preclinical basis for analyzing the drug-drug interaction in pharmacokinetics.
(§6) • 1) Cell culture medium was added to each well of the Transwell. The HTS Transwell plate was incubated under conditions of 37° C. and 5% CO2 for 1 h prior to cell inoculation. • 2) Caco-2 cells were diluted with culture medium and the cell suspension was dispensed into filter wells of the 96-well HTS Transwell plate. […] The cell culture medium was changed periodically. • 3) Monolayer cell resistance was measured using the Millicell Epithelial Volt-Ohm detection system. The resistance of each well was recorded. After all wells were measured, the Transwell plate was put back into the incubator. TEER of each well was calculated according to the formula. The TEER value of each well should be greater than 230 ohm·cm^2. […] Preparation for Transporter Test • 1) The Caco-2 plate was taken out from the incubator. The monolayer cells were washed with pre-heated HBSS twice. The plate was then incubated at 37° C. for 30 min. • 2) Stock solutions of the compounds were prepared in DMSO and diluted with HBSS to obtain working solutions. Digoxin was used as a reference substrate for P-gp and rosuvastatin was used as a reference substrate for BCRP. Propranolol was used as a high permeability marker. • 3) The working solution (without inhibitor) was added to the Transwell insert (apical compartment) to determine the rate of drug transport in the apical to basolateral direction. The transfer buffer was added to the wells in the receiver plate (basolateral compartment). The working solution (without inhibitor) was added to the receiver plate wells (basolateral compartment) to determine the rate of drug transport in the basolateral to apical direction. The Transwell insert (apical compartment) was filled with the transport buffer. PSC833 was added to the apical and basolateral compartments to determine the rate of drug transport in the presence of P-gp inhibitors. • 4) The sample was transferred from the working solution to the quenching solution, and a sample with a time of 0 was prepared. The Transwell plate was incubated under conditions of 37° C. and 5% CO2 for 2 h. • 5) At the end of the transport cycle, the samples were transferred from the apical and basolateral wells into a new 96-well plate. Cold acetonitrile or methanol containing the appropriate internal standard (IS) was added to each well of the plate. The plate was vortexed for 10 min. The samples were centrifuged. The supernatant of an aliquot was mixed with an appropriate amount of ultrapure water (depending on the LC-MS/MS signal response and peak shape) prior to the LC-MS/MS analysis. • 6) The stock solution of lucifer yellow in DMSO was prepared and diluted with HBSS to determine the amount of lucifer yellow leakage after a 2-hour transport period. The lucifer yellow solution was added to the apical compartment. HBSS was added to the basolateral compartment. The plate was incubated at 37° C. for 30 min, and a certain amount of the solution was directly taken from the apical and basolateral wells and transferred to a new 96-well plate. The lucifer yellow fluorescence was measured in a fluorescence plate reader with 485 nm excitation and 530 nm emission (to monitor monolayer integrity).
(§7) Data were calculated using Microsoft Excel. The percentage of the compound remaining at each time point was estimated by determining the peak area ratio from the extracted ion chromatogram.
(§8) For drug transport analysis in the Caco-2 cell model, the apparent permeability coefficient (Papp) can be calculated according to the following formula, in cm/s:
(§9) [formula] • wherein the concentration C is in nM, the volume V is in μL, the time T is in s, and the area S is in cm^2.
(§10) The recovery rate is calculated according to the following formula:

BCRP [2] = molecular target: T1, BCRP; experiment: in vitro; settings: for efflux ratio at 2 h: Caco-2; for Papp A→B at 2 h: Caco-2, Papp (A-B) (10^−6, cm/s); for Papp B→A at 2 h: Caco-2, Papp (B-A) (10^−6, cm/s)
Description: as §5, §6, §7, §8, §9, §10

BCRP [3] = molecular target: T1, BCRP
Description: as §5, §6, §7, §8, §9, §10

[4] = Homo sapiens, JIMT-1, 144 h, read-out: JIMT-1 IC50 (nM)

`CC[C@@]1(O)C(=O)OCc2c1cc1n(c2=O)Cc2c-1nc1cc(F)c(C)c3c1c2[C@@H](NC(=O)CCN)CC3` [compound 2, N-((1S,9S)-9-ethyl-5-fluoro-9-hydroxy-4-methyl-10,13-dioxo-2,3,9,10,13,15-hexahydro-1H,12H-benzo[de]pyrano[3′,4′:6,7]indolino[1,2-b]quinolin-1-yl)-3-aminopropionamide, reference compound] gave an IC50 (JIMT-1 cells; Table 3, Test Example 2.3, small molecule fragments, 6 days of culture, CTG, read-out: JIMT-1 IC50) of 36.2 nM.
`CC[C@@]1(O)C(=O)OCc2c1cc1n(c2=O)Cc2c-1nc1cc(F)c(C)c3c1c2[C@@H](NC(=O)C(C)C(C)O)CC3` (stereo partly drawn) [compound 4, N-((1S,9S)-9-ethyl-5-fluoro-9-hydroxy-4-methyl-10,13-dioxo-2,3,9,10,13,15-hexahydro-1H,12H-benzo[de]pyrano[3′,4′:6,7]indolizino[1,2-b]quinolin-1-yl)-3-hydroxy-2-methylbutanamide, reference compound] gave an IC50 (JIMT-1 cells; [4]) of 32.3 nM.
`CC[C@@]1(O)C(=O)OCc2c1cc1n(c2=O)Cc2c-1nc1cc(F)c(C)c3c1c2[C@@H](NC(=O)C1CCCC(O)C1)CC3` (stereo partly drawn) [P-II-22, N-((1S,9S)-9-ethyl-5-fluoro-9-hydroxy-4-methyl-10,13-dioxo-2,3,9,10,13,15-hexahydro-1H,12H-benzo[de]pyrano[3′,4′:6,7]indolizino[1,2-b]quinolin-1-yl)-3-hydroxycyclohexane-1-carboxamide] gave an IC50 (JIMT-1 cells; [4]) of 3.2 nM.
`CC[C@@]1(O)C(=O)OCc2c1cc1n(c2=O)Cc2c-1nc1cc(F)c(C)c3c1c2[C@@H](NC(=O)CCS)CC3` [P-III-2, N-((1S,9S)-9-ethyl-5-fluoro-9-hydroxy-4-methyl-10,13-dioxo-2,3,9,10,13,15-hexahydro-1H,12H-benzo[de]pyrano[3′,4′:6,7]indolizino[1,2-b]quinolin-1-yl)-3-mercaptopropanamide] gave an IC50 (NCI-N87 cells) of 108 nM and an IC50 (JIMT-1 cells; [4]) of 108 nM.
For `CC[C@@]1(O)C(=O)OCc2c1cc1n(c2=O)Cc2c-1nc1cc(F)c(C)c3c1c2[C@@H](NC(=O)CC(=O)CO)CC3` [P-III-22, N-((1S,9S)-9-ethyl-5-fluoro-9-hydroxy-4-methyl-10,13-dioxo-2,3,9,10,13,15-hexahydro-1H,12H-benzo[de]pyrano[3′,4′:6,7]indolizino[1,2-b]quinolin-1-yl)-4-hydroxy-3-oxobutanamide], the IC50 (JIMT-1 cells; [4]) was 12.5 nM.
Work on `CC(C)c1nc(N(C)S(C)(=O)=O)nc(-c2ccc(F)cc2)c1/C=C/[C@@H](O)C[C@@H](O)CC(=O)O` [Rosuvastatin, rosuvastatin, reference compound] yielded a recovery at 2 h (BCRP [1]; Caco-2, Recovery rate (%) AP-BL, KO143 −) of 98.5%, a recovery at 2 h (BCRP [1]; Caco-2, Recovery rate (%) BL-AP, KO143 −) of 96.8% and a recovery at 2 h (BCRP [1]; Caco-2, with KO143 (concentration not stated), Recovery rate (%) AP-BL, KO143 +) of 95.8%. It also gave a recovery at 2 h (BCRP [1]; Caco-2, with KO143 (concentration not stated), Recovery rate (%) BL-AP, KO143 +) of 97.1%, an efflux ratio at 2 h (BCRP [2]) of 81.2 and a Papp A→B at 2 h (BCRP [2]) of 0.12 ×10⁻⁶ cm/s. For the same molecule, the Papp B→A at 2 h (BCRP [2]) was 9.52 ×10⁻⁶ cm/s, the BCRP substrate (BCRP [3]; Caco-2) was “Yes” and the “Papp (A-B) (10^−6, cm/s)” value (BCRP [3]; Caco-2) was 0.45 10^−6, cm/s. The “Papp (B-A) (10^−6, cm/s)” value (BCRP [3]; Caco-2) was 3.15 10^−6, cm/s and the Efflux ratio (BCRP [3]; human, Caco-2, 2 h) was 6.96.
In the case of `CC(C)NCC(O)COc1cccc2ccccc12` (centres unmarked) [Propranolol], the efflux ratio at 2 h (BCRP [2]) is reported as 1.09, the Papp A→B at 2 h (BCRP [2]) is reported as 17.3 ×10⁻⁶ cm/s and the Papp B→A at 2 h (BCRP [2]) is reported as 18.9 ×10⁻⁶ cm/s. The recovery at 2 h (BCRP [2]; Caco-2, Recovery rate (%) AP-BL) was 62.2%, the recovery at 2 h (BCRP [2]; Caco-2, Recovery rate (%) BL-AP) was 82.4% and the BCRP substrate (BCRP [3]; Caco-2) was “No”.
Molecule `CC[C@@]1(O)C(=O)OCc2c1cc1n(c2=O)Cc2c-1nc1cc(F)c(C)c3c1c2[C@@H](NC(=O)CCO)CC3` [compound 3, N-((1S,9S)-9-ethyl-5-fluoro-9-hydroxy-4-methyl-10,13-dioxo-2,3,9,10,13,15-hexahydro-1H,12H-benzo[de]pyrano[3′,4′:6,7]indolizino[1,2-b]quinolin-1-yl)-3-hydroxypropanamide, reference compound] has an IC50 (JIMT-1 cells; Homo sapiens, JIMT-1, 144 h, Table 3, Test Example 2.3, small molecule fragments, 6 days of culture, CTG, read-out: JIMT-1 IC50) of 81.2 nM.
`CCCC(O)CC(=O)N[C@H]1CCc2c(C)c(F)cc3nc4c(c1c23)Cn1c-4cc2c(c1=O)COC(=O)[C@]2(O)CC` (stereo partly drawn) [P-III-27, N-((1S,9S)-9-ethyl-5-fluoro-9-hydroxy-4-methyl-10,13-dioxo-2,3,9,10,13,15-hexahydro-1H,12H-benzo[de]pyrano[3′,4′:6,7]indolizino[1,2-b]quinolin-1-yl)-3-hydroxyhexanamide] showed an IC50 (NCI-N87 cells) of 3 nM.
With `CC[C@@]1(O)C(=O)OCc2c1cc1n(c2=O)Cc2c-1nc1cc(F)c(C)c3c1c2[C@@H](NC(=O)C1(O)CCC1)CC3` [compound 1, N-((1S,9S)-9-ethyl-5-fluoro-9-hydroxy-4-methyl-10,13-dioxo-2,3,9,10,13,15-hexahydro-1H,12H-benzo[de]pyrano[3′,4′:6,7]indolizino[1,2-b]quinolin-1-yl)-1-hydroxycyclobutane-1-carboxamide, reference compound] the IC50 (JIMT-1 cells; Homo sapiens, JIMT-1, 144 h, Table 2 (untitled), Test Example 2.2, small molecule fragments, 6 days of culture, CTG, read-out: JIMT-1 IC50) was 23.1 nM.
